Our source for the IC50 values is patent US20240140941A1, “DERIVATIVE OF 2,5-DIKETOPIPERAZINE COMPOUND, AND PREPARATION METHOD THEREFOR, PHARMACEUTICAL COMPOSITION THEREOF AND USE THEREOF” (DALIAN WZ PROBIOTICS AD HEALTH CO., LTD, priority 2020, published 2024).

Holding throughout (type): cell-based, human
One assay has as its system BxPC-3. Description: Inhibition test on cell proliferation (MTT), BxPC-3. As to conditions: read-out: IC50 (nM) BxPC-3. As for the experimental part:
(§1) Tumor cells (NCI-H460, BxPC-3, HT-29, HCC-LM3) in the logarithmic growth phase were digested, centrifuged, and the supernatants were removed. Cells were resuspended by adding fresh culture medium, and counted using a cell counting plate. 100 μL of culture medium (containing cells) was added to a 96-well plate according to the standard of 2000 to 6000 cells per well and incubated in an incubator (37° C., 5% CO2) for 24 hours. After the cells were completely adhered to the wall, the test sample and Plinabulin were diluted to different concentrations using fresh culture medium, and 4 wells were set for each concentration. After 72 hours of drug treatment, the culture medium was removed, and 20 μL of MTT at a concentration of 5 mg/mL was added to each well. After 3-4 hours in the incubator, the MTT was discarded, and 100 μL of DMSO was added to each well, and placed in a 96-well plate shaker to completely dissolve the purple formazan. Subsequently, the absorbance (OD value) was detected at a wavelength of 490 nm using a microplate reader. The experiment also required setting up zero-setting wells (blank culture medium, MTT, DMSO). Cell inhibition rate=1−(OD value of drug-dosed group−OD value of zero-setting group)/(OD value of blank group−OD value of zero-setting group)×100%.

For the next assay, the system named is NCI-H460. Briefly: Inhibition test on cell proliferation (MTT), NCI-H460. The procedure:
as §1

The test system of the next assay is HCC-LM3. Description: Inhibition test on cell proliferation (MTT), HCC-LM3. As to conditions: Homo sapiens, HCCLM3, 72 h, read-out: IC50 (nM) HCC-LM3. As for the experimental part:
as §1

Where [1] appears, read: Homo sapiens, BXPC-3, 72 h, 72 hours of drug treatment, MTT.
Setting [2] is: Homo sapiens, NCI-H460, 72 h, 72 hours of drug treatment, MTT, read-out: IC50 (nM) NCI-H460.
[3] abbreviates: 72 hours of drug treatment, MTT.
Setting [4] is: 72 hours of drug treatment, MTT, read-out: IC50 (nM) NCI-H460.

Where two headings read alike, the source gives them in different places.

`CC(=O)N1CCN(CCCn2cnc(/C=c3\[nH]c(=O)/c(=C/c4cccc(F)c4)[nH]c3=O)c2C(C)C)CC1` [PLN-2-64, (3Z,6Z)-3-(3-Fluorophenyl)methylene-6-(5-isopropyl-1-(3-(4-(acetyl)piperazinyl)propylimidazol-4-yl)methylene)piperazine-2,5-dione]: the half-inhibitory concentration (IC50) in the assay with BxPC-3 (setting [1]) came to 7.7 ± 0.39 nM; with NCI-H460 (setting [2]), 18.5 ± 0.3 nM; in the assay with HCC-LM3 (setting [3]), 26.1 ± 2.14 nM.

Turning to `CC(CN1CCOCC1)Cn1cnc(/C=c2\[nH]c(=O)/c(=C/c3cccc(F)c3)[nH]c2=O)c1C(C)C` (centres unmarked) [PLN-2-67, (3Z,6Z)-3-(3-Fluorophenyl)methylene-6-((5-isopropyl-1-(3-morpholinyl)-2-methylpropylimidazol-4-yl)methylene)piperazine-2,5-dione], the half-inhibitory concentration (IC50) came to 3.73 ± 0.06 nM with BxPC-3 (setting [1]), 8.39 ± 0.58 nM in the assay on NCI-H460 (setting [2]) and 7.7 ± 0.04 nM in the assay on HCC-LM3 (setting [3]).

`CCC(=O)N1CCN(CCCn2cnc(/C=c3\[nH]c(=O)/c(=C/c4cccc(C(=O)c5ccc(F)cc5)c4)[nH]c3=O)c2C(C)C)CC1` [PLN-2-31, (3Z,6Z)-3-(3-(p-fluorobenzoyl)phenyl)methylene-6-((5-isopropyl-1-(3-N-propionylpiperazinyl)propylimidazol-4-yl)methylene)piperazine-2,5-dione]: the IC50 in the assay with BxPC-3 (setting [1]) was determined as 2.48 ± 0.57 nM; with NCI-H460 (setting [2]), 6.93 ± 0.96 nM.

For the compound `CC(C)NC(=O)N1CCN(CCCn2cnc(/C=c3\[nH]c(=O)/c(=C/c4cccc(C(=O)c5ccc(F)cc5)c4)[nH]c3=O)c2C(C)C)CC1` [PLN-2-44, (3Z,6Z)-3-(3-(p-fluorobenzoyl)phenyl)methylene-6-((5-isopropyl-1-(3-N-isopropylaminocarbonylpiperazinyl)propylimidazol-4-yl)methylene)piperazine-2,5-dione], the IC50 turned out to be 3.84 ± 0.12 nM in the assay on BxPC-3 (setting [1]) and 8.68 ± 0.78 nM in the assay with NCI-H460 (setting [2]).

With `CC(C)c1c(/C=c2\[nH]c(=O)/c(=C/c3cccc(C(=O)c4ccc(F)cc4)c3)[nH]c2=O)ncn1CCCN1CCN(C(=O)c2ccccc2)CC1` [PLN-2-41, (3Z,6Z)-3-(3-(p-fluorobenzoyl)phenyl)methylene-6-((5-isopropyl-1-(3-N-benzoylpiperazinyl)propylimidazol-4-yl)methylene)piperazine-2,5-dione], the results for the IC50 in the assay on BxPC-3 (setting [1]) and in the assay with NCI-H460 (setting [2]) were 3.25 ± 2.13 nM and 5.55 ± 1.68 nM, respectively.

As to `CC1CN(CCCn2cnc(/C=c3\[nH]c(=O)/c(=C/c4cccc(C(=O)c5ccc(F)cc5)c4)[nH]c3=O)c2C(C)C)CC(C)O1` (centres unmarked) [PLN-2-12, (3Z,6Z)-3-(3-(p-fluorobenzoyl)phenyl)methylene-6-((5-isopropyl-1-((2,6-dimethyl)-3-morpholinyl)propylimidazol-4-yl)methylene)piperazine-2,5-dione], the results for the IC50 in the assay on BxPC-3 (setting [3]) and with NCI-H460 (setting [4]) were 2.48 ± 2.12 nM and 3.77 ± 0.62 nM, respectively.

For the compound `CC(C)c1c(/C=c2\[nH]c(=O)/c(=C/c3cccc(C(=O)c4ccc(F)cc4)c3)[nH]c2=O)ncn1CCCN1CCN(C(=O)NC(C)(C)C)CC1` [PLN-2-45, (3Z,6Z)-3-(3-(p-Fluorobenzoyl)phenyl)methylene-6-((5-isopropyl-1-(3-N-tert-butylaminocarbonylpiperazinyl)propylimidazol-4-yl)methylene)piperazine-2,5-dione], the values for the IC50 in the assay on BxPC-3 (setting [1]) and with NCI-H460 (setting [2]) were 1.79 ± 0.49 nM and 6.43 ± 1.98 nM, respectively.

Take `CC(C)c1c(/C=c2\[nH]c(=O)/c(=C/c3cc(F)ccc3F)[nH]c2=O)ncn1CCCN1CCNCC1` [PLN-2-20, (3Z,6Z)-3-(2,5-difluorophenyl)methylene-6-((5-isopropyl-1-(3-piperazinyl)propylimidazol-4-yl)methylene)piperazine-2,5-dione]: the figures for the IC50 in the assay on BxPC-3 (setting [1]) and in the assay on NCI-H460 (setting [2]) were 91.63 ± 0.62 nM and 147 ± 14.5 nM, respectively.

Regarding `CC(C)c1c(/C=c2\[nH]c(=O)/c(=C/c3cccc(Oc4ccc(F)cc4)c3)[nH]c2=O)ncn1CCCN1CCN(C(=O)OC(C)(C)C)CC1` [PLN-2-17, (3Z,6Z)-3-(3-(4-Fluorophenoxy)phenyl)methylene-6-((5-isopropyl-1-(3-N-tert-butoxycarbonylpiperazinyl)propylimidazol-4-yl)methylene)piperazine-2,5-dione], the values for the IC50 in the assay with BxPC-3 (setting [1]) and in the assay with NCI-H460 (setting [2]) were 21.1 ± 2.41 nM and 41.8 ± 2.27 nM, respectively.

On to `CC(C)c1c(/C=c2\[nH]c(=O)/c(=C/c3cccc(C(=O)c4ccc(F)cc4)c3)[nH]c2=O)ncn1CCCN1CCN(C(=O)C2CC2)CC1` [PLN-2-35, (3Z,6Z)-3-(3-(p-fluorobenzoyl)phenyl)methylene-6-((5-isopropyl-1-(3-N-cyclopropanecarbonylpiperazinyl)propylimidazol-4-yl)methylene)piperazine-2,5-dione], for which the IC50 stood at 2.23 ± 2.2 nM in the assay with BxPC-3 (setting [1]) and 5.28 ± 0.71 nM in the assay on NCI-H460 (setting [2]).

For the compound `CC1CN(CCCn2cnc(/C=c3\[nH]c(=O)/c(=C/c4cccc(C(=O)c5ccc(F)cc5)c4)[nH]c3=O)c2C(C)C)CC(C)O1` (centres unmarked) [PLN-2-13, (3Z,6Z)-3-(3-(p-fluorobenzoyl)phenyl)methylene-6-((5-isopropyl-1-((2,6-dimethyl)-3-morpholinyl)propylimidazol-4-yl)methylene)piperazine-2,5-dione], the figures for the IC50 in the assay on BxPC-3 (setting [3]) and with NCI-H460 (setting [4]) were 14.9 ± 2.62 nM and 8.2 ± 0.54 nM, respectively.

`CC(C)c1c(/C=c2\[nH]c(=O)/c(=C/c3cccc(C(=O)c4ccc(F)cc4)c3)[nH]c2=O)ncn1CCCN1CCN(Cc2ccc(B3OC(C)(C)C(C)(C)O3)cc2)CC1` [PLN-2-27, (3Z,6Z)-3-(3-(p-fluorobenzoyl)phenyl)methylene-6-((5-isopropyl-1-(3-N-(4-(4,4,5,5-tetramethyl-1,3,2-dioxaborolan-2-yl))benzylpiperazinyl)propylimidazol-4-yl)methylene)piperazine-2,5-dione]: the IC50 came to 17.9 ± 5.9 nM in the assay with BxPC-3 (setting [1]) and 23.9 ± 4.76 nM in the assay with NCI-H460 (setting [2]).

In the case of `CC(C)c1c(/C=c2\[nH]c(=O)/c(=C/c3cc(F)ccc3F)[nH]c2=O)ncn1CCCN1CCN(C(=O)OC(C)(C)C)CC1` [PLN-2-48], the IC50 in the assay on BxPC-3 (setting [1]) was 33.1 ± 0.98 nM; in the assay with NCI-H460 (setting [2]) it was 39.2 ± 1.85 nM.

For the compound `CC(C)c1c(/C=c2\[nH]c(=O)/c(=C/c3cc(F)ccc3F)[nH]c2=O)ncn1CCCN1CCN(C)CC1` [PLN-2-24], the results for the half-inhibitory concentration (IC50) in the assay with BxPC-3 (setting [1]) and with NCI-H460 (setting [2]) were 13.19 ± 0.07 nM and 28.6 ± 1.4 nM, respectively.

With `CCCC(=O)N1CCN(CCCn2cnc(/C=c3\[nH]c(=O)/c(=C/c4cccc(F)c4)[nH]c3=O)c2C(C)C)CC1` [PLN-2-66, (3Z,6Z)-3-(3-Fluorophenyl)methylene-6-(5-isopropyl-1-(3-(4-(n-butyryl)piperazinyl)propylimidazol-4-yl)methylene)piperazine-2,5-dione], the IC50 in the assay with BxPC-3 (Homo sapiens, BXPC-3, 72 h) stood at 30.4 ± 0.35 nM; with NCI-H460 (Homo sapiens, NCI-H460, 72 h, read-out: IC50 (nM) NCI-H460, 72 hours of drug treatment, MTT), 40.3 ± 3.72 nM; in the assay with HCC-LM3, 43.9 ± 7.94 nM.

With `CCC(=O)N1CCN(CCCn2cnc(/C=c3\[nH]c(=O)/c(=C/c4cccc(F)c4)[nH]c3=O)c2C(C)C)CC1` [PLN-2-65, (3Z,6Z)-3-(3-Fluorophenyl)methylene-6-(5-isopropyl-1-(3-(4-(propionyl)piperazinyl)propylimidazol-4-yl)methylene)piperazine-2,5-dione], the IC50 in the assay on BxPC-3 (setting [1]) turned out to be 10.3 ± 2.18 nM; in the assay on NCI-H460 (setting [2]) it was 17.4 ± 1.45 nM; in the assay with HCC-LM3 (setting [3]) it was 20.9 ± 0.97 nM.

With `CC1CN(CCCn2cnc(/C=c3\[nH]c(=O)/c(=C/c4cccc(C(=O)c5ccc(F)cc5)c4)[nH]c3=O)c2C2CC2)CC(C)O1` (centres unmarked) [PLN-2-14, (3Z,6Z)-3-(3-(p-fluorobenzoyl)phenyl)methylene-6-((5-cyclopropyl-1-((2,6-dimethyl)-3-morpholinyl)propylimidazol-4-yl)methylene)piperazine-2,5-dione], the IC50 with BxPC-3 (setting [1]) amounted to 9.33 ± 0.45 nM; with NCI-H460 (setting [2]) it was 9.33 ± 0.54 nM.

As a reminder, the IC50 is the point on the concentration scale where inhibition reaches its midpoint.
